Results as given in US20140228287A1, “1-[(3-CYANO-PYRIDIN-2-YL)METHYL]-3-METHYL-7-(2-BUTYN-1-YL)-8-[3-(R)-AMINO-PIPERIDIN-1-YL]-AXANTHINE FOR THE TREATMENT OF A METABOLIC DISORDER OF A PREDOMINANTLY CARNIVOROUS NON-HUMAN ANIMAL” (BOEHRINGER INGELHEIM VETMEDICA GMBH, priority 2010, published 2014).
Structures can show the parent of a compound that is named as a salt.

How the values were obtained:
[1] = test system: insulin-resistant fa/fa rats; assay: Delayed OGTT in insulin-resistant fa/fa rats; format: in vivo, rat; settings: 3 mg/kg 16 h before OGTT
Description: Male Zucker Fatty (fa/fa) rats (Ico-Zucker-fa/fa (Orl)) were obtained from Iffa (France). Animals were fed ad libitum with a standard pelleted diet (Diet No. 3438, Provimi Kliba, Switzerland) and had free access to water. Animals were housed in groups with a 12 h/12 h light/dark cycle (lights out between 6 p.m. and 6 a.m.). The rats were used for the experiments between 7 and 12 weeks of age.
fa/fa rats (n=6 per group) were treated like the mice in Example 3, delayed OGTT. 1-[(3-cyano-pyridin-2-yl)methyl]-3-methyl-7-(2-butyn-1-yl)-8-[3-(R)-amino-piperidin-1-yl]-xanthine was dosed at 3 mg/kg 16 hours before the OGTT.
GLP-1 was measured using a commercially available GLP-1 (active) ELISA Kit (Catalog# EGLP-35K, Linco Research Inc., St. Charles/Mo., USA). Insulin was measured using a commercially available Rat Insulin ELISA Kit (Catalog#90060, Crystal Chem. Inc., Downers Grove/IL, USA).

[2] = biological target: DPP-II (Homo sapiens, UniProt Q9UHL4); assay: In vitro selectivity, human proteases: DPP-II; format: biochemical; settings: up to 100 μM
Description: In order to determine the in vitro selectivity of 1-[(3-cyano-pyridin-2-yl)methyl]-3-methyl-7-(2-butyn-1-yl)-8-[3-(R)-amino-piperidin-1-yl]-xanthine, the ability of this compound to inhibit a number of human proteases was investigated as described in Thomas et al. (2008), J. Pharmacol. Exp. Ther., vol. 325, p. 175-182, chapter In vitro DPP-4 Inhibition Assay, p. 176.

[3] = test system: blood glucose; assay: Glucose monitoring in obese/non-obese cats, 7 days once daily dosing; format: in vivo, cat; settings: 9 mg once daily 7 days; for Glucose, Max / Glucose, Mean / Glucose, Median / Glucose, Min: all 14 obese and non-obese cats, 168 hour period
Description: The aim of this exploratory, randomized, placebo controlled crossover study was to investigate the effect of 1-[(3-cyano-pyridin-2-yl)methyl]-3-methyl-7-(2-butyn-1-yl)-8-[3-(R)-amino-piperidin-1-yl]-xanthine monohydrochloride on DPP IV activity and on glucose concentrations in obese and non-obese cats after repeated oral administration over seven days.
Fourteen clinically healthy male and female (8 obese and 6 non-obese) purpose-bred cats were used in this study. The animals were randomly allocated to two groups of cats, obese and non-obese, and treated in a cross-over design with 9 mg 1-[(3-cyano-pyridin-2-yl)methyl]-3-methyl-7-(2-butyn-1-yl)-8-[3-(R)-amino-piperidin-1-yl]-xanthine monohydrochloride or placebo, once daily for 7 days, with a following wash-out period of 21 days.
Cats were fed once daily 40 min after administration of the compound or the placebo, respectively.
To allow a Continuous glucose monitoring (CGM) a Continuous glucose monitoring system (CGMS) was applied. To this end, on day 1 a Medtronic continuous glucose monitoring sensor (Guardian system; Medtronic Minimed, Northridge, Calif., USA) was placed interstitially. The skin was shaved, and then wiped several times with 70% alcohol. The sensor was inserted into the skin and secured to the skin with a cover provided by Medtronics, and Elasticon. The CGMS was calibrated 2 times daily using a glucometer. When a sensor became non-functional, a new sensor was placed. The sensors were placed between the shoulder blades. Data were recalled via a wireless system.
Also blood samples for were taken before and 6, 12, 24, 64, and 168 hours (3 ml each) after oral administration of the test compound or the placebo. Blood samples for the calibration of the CGMS were taken at least twice daily from day 1 to day 7 approximately twelve hours apart (0.2 ml of blood each time). Glucose measurements were performed using a glucometer (Presto WaveSense) and also a colorimetric glucose oxidase method (Genzyme Diagnostics PEI Incorporated; Charlottetown, Canada), reference method, at appropriate time points (0.2 ml each time; see results section). Interstitial glucose concentrations were followed with the continuous glucose monitoring system. After 7 days, the CGMS was removed.
The measured mean, median, min, and max glucose values for all 14 cats during a 168 hour testing period using the three glucose measurement methods are shown in Table 9.

[4] = Glucose oxidase (reference method)

CC#CCn1c(N2CCC[C@@H](N)C2)nc2c1c(=O)n(Cc1ncccc1C#N)c(=O)n2C [1-[(3-cyano-pyridin-2-yl)methyl]-3-methyl-7-(2-butyn-1-yl)-8-[3-(R)-amino-piperidin-1-yl]-xanthine monohydrochloride]
GLP-1 levels vs. control group [1]: elevated vs. the control group at all time points
Glucose AUC 0-90 min, Change versus control, Mean Diff. % [1]: −34.4%
Glucose AUC 0-90 min, Mean [1]: 177.00 mM·min
Glucose AUC 0-90 min, Median [1]: 165.00 mM·min
peak plasma insulin levels compared to vehicle treatment [1]: further elevations in peak plasma insulin levels
reduction of area under the glucose excursion curve [1]: 34.4%
rise of GLP-1 levels vs. baseline after the glucose stimulus [1]: 93%
Glucose, Change versus baseline, Mean Diff. % ([1]; 30 min): 71.7%
Glucose, Change versus control, Mean Diff. % ([1]; 30 min): −29.0%
Glucose, Mean ([1]; 30 min): 7.90 mM
Glucose, Median ([1]; 30 min): 8.00 mM
Glucose, Change versus baseline, Mean Diff. % ([1]; 60 min): 39.1%
Glucose, Change versus control, Mean Diff. % ([1]; 60 min): −23.0%
Glucose, Mean ([1]; 60 min): 6.40 mM
Glucose, Median ([1]; 60 min): 6.30 mM
Glucose, Change versus baseline, Mean Diff. % ([1]; 90 min): 34.8%
Glucose, Change versus control, Mean Diff. % ([1]; 90 min): −2.1%
Glucose, Mean ([1]; 90 min): 6.20 mM
Glucose, Median ([1]; 90 min): 6.30 mM
Glucose, Change versus baseline, Mean Diff. % ([1]; 120 min): 31.3%
Glucose, Change versus control, Mean Diff. % ([1]; 120 min): 5.7%
Glucose, Mean ([1]; 120 min): 6.04 mM
Glucose, Median ([1]; 120 min): 5.70 mM
Glucose, Change versus baseline, Mean Diff. % ([1]; 180 min): 29.6%
Glucose, Change versus control, Mean Diff. % ([1]; 180 min): 13.2%
Glucose, Mean ([1]; 180 min): 5.96 mM
Glucose, Median ([1]; 180 min): 6.10 mM
Glucose, Change versus control, Mean Diff. % ([1]; Pre-load): −15.6%
Glucose, Mean ([1]; Pre-load): 4.60 mM
Glucose, Median ([1]; Pre-load): 4.40 mM
inhibitory effect on DPP-II [2]: did not exert any inhibitory effect
Glucose, Max ([3]; CGM): 126 mg/dL
Glucose, Mean ([3]; CGM): 94 mg/dL
Glucose, Median ([3]; CGM): 93 mg/dL
Glucose, Min ([3]; CGM): 66 mg/dL
Glucose, Max ([3]; Glucometer): 131 mg/dL
Glucose, Mean ([3]; Glucometer): 103 mg/dL
Glucose, Median ([3]; Glucometer): 101 mg/dL
Glucose, Min ([3]; Glucometer): 79 mg/dL
Glucose, Max [3, 4]: 142 mg/dL
Glucose, Mean [3, 4]: 93 mg/dL
Glucose, Median [3, 4]: 89 mg/dL
Glucose, Min [3, 4]: 71 mg/dL
daily blood glucose concentrations, treated vs placebo treated ([3]; obese or non-obese cats): no difference in daily blood glucose concentrations
